The values that follow come from US12715891B2, “Iron complexes and salts thereof as contrast agents for MRI” (BRACCO IMAGING S.P.A., priority 2020, dated 2026).

Series [1] is described as follows: Fixed-field relaxometric measurements in human serum and in water. It counts as physicochemical. Particulars: for r1p / r2p: 1 T, 37° C. Here is the method:
Fixed-field relaxometric measurements were performed using the [Fe(DFX)2Meg3] complex obtained as per Example 1, comparing it with two prior art complexes, Gd-DTPA and Fe-DTPA.

In series [2] the test system is mice inoculated with tumour cells (ISA). The experiment in a line: In vivo MRI contrast enhancement (En %). The conditions noted are these: 0.1 mmol/Kg. The method, then:
The increase in contrast (En %) generated by the administration of the complex according to the present invention Fe(DFX)2, obtained as per Example 1 (0.1 mmol/Kg), was measured and compared with the one induced by the Gd-DTPA complex (known by the trade name of Magnevist) at the same dose and under the same experimental conditions. The measurements were performed (in vivo), under a fixed magnetic field of 3T and 7T, in mice inoculated with tumour cells (ISA). The images were acquired when the size of the subcutaneous tumour had reached about 1-2 cm (i.e. about 15-20 days after inoculation).

Regarding `CNC[C@H](O)[C@@H](O)[C@H](O)[C@H](O)CO.CNC[C@H](O)[C@@H](O)[C@H](O)[C@H](O)CO.O=C([O-])CN(CCN(CC(=O)[O-])CC(=O)O)CCN(CC(=O)[O-])CC(=O)O.[Gd+3]` [Gd-DTPA, gadopentetic acid], in series [1] (Human serum), the r1p is 4.1 (1 T, 37° C.) and the r2p was 4.8 (1 T, 37° C.). In addition, the “relaxivity in human serum” value in series [1] (human serum, 37° C. and 1T) stood at 3.4 mM⁻¹ s⁻¹. Further, in series [1] (water), the r1p is 3.4 (1 T, 37° C.) and the r2p is 3.9 (1 T, 37° C.). Also, the “renal excretion (kidneys and bladder contrast) compared with Fe(DFX)2” value in series [2] was “more rapid renal excretion”.
